Where a name gives a salt, the structure may show the parent alone.
Columns and labels:
[1] = target: T1, human 5-HT2B receptor (Homo sapiens, UniProt P41595); test: 5-HT2B antagonist effect, IP1 production (HTRF) in transfected CHO cells; format: cell-based; settings: antagonism of 30 nM 5-HT
T1 construct: expressed in transfected cells; host or cells: CHO cells
Experimental: (§1) Evaluation of the activity of CBD and 7-OH-CBD at the human 5-HT2B receptor was undertaken in transfected CHO cells. Such activity as either an agonist or antagonist was determined by measuring their effects IP1 production using the HTRF detection method.
(§2) Cells were suspended in a buffer containing 10 mM Hepes/NaOH (pH 7.4), 4.2 mM KCl, 146 mM NaCl, 1 mM CaCl2), 0.5 mM MgCl2, 5.5 mM glucose and 50 mM LiCl, then distributed in microplates at a density of 4.104 cells/well and preincubated for 5 min at room temperature in the presence of buffer (basal control), test compound or reference antagonist.
Thereafter, the reference agonist 5-HT is added at a final concentration of 30 nM. […] Following 30 min incubation at 37° C., the cells are lysed and the fluorescence acceptor (D2-labeled IP1) and fluorescence donor (anti-IP1 antibody labelled with europium cryptate) are added.
After 60 min at room temperature, the fluorescence transfer is measured at ex=337 nm and λ em=620 and λ 665 nm using a microplate reader (Rubystar, BMG).
(§3) The IP1 concentration is determined by dividing the signal measured at 665 nm by that measured at 620 nm (ratio).
The results are expressed as a percent inhibition of the control response to 30 nM 5-HT. […]

[2] = Plasma concentrations in human clinical trials in epilepsy; format: in vivo
[3] = target: T1, human 5-HT2B receptor; test: 5-HT2B agonist effect, IP1 production (HTRF) in transfected CHO cells; format: cell-based; settings: IP1 production vs 1 μM 5-HT control
Experimental: as §1
as §2, with “and incubated” for “and preincubated”, “for 30” for “for 5”, “at 37° C.” for “at room temperature”, “reference agonist.” for “reference antagonist.”
For stimulated control measurement, separate assay wells contain 1 μM 5-HT. Following incubation, the cells are lysed and the fluorescence acceptor (D2-labeled IP1) and fluorescence donor (anti-IP1 antibody labelled with europium cryptate) are added.
After 60 min at room temperature, the fluorescence transfer is measured at A ex=337 nm and A em=620 and 665 nm using a microplate reader (Rubystar, BMG).
as §3
The results are expressed as a percent of the control response to 1 μM 5-HT. The standard reference agonist is 5-HT, which is tested in each experiment at several concentrations to generate a concentration-response curve from which its EC50 value is calculated.

[4] = target: T2, human recombinant 5-HT2C receptor (Homo sapiens, UniProt P28335); test: Inhibition of specific binding at human recombinant 5-HT2C receptors (FIG. 2B)
T2 sequence (P28335 33-458): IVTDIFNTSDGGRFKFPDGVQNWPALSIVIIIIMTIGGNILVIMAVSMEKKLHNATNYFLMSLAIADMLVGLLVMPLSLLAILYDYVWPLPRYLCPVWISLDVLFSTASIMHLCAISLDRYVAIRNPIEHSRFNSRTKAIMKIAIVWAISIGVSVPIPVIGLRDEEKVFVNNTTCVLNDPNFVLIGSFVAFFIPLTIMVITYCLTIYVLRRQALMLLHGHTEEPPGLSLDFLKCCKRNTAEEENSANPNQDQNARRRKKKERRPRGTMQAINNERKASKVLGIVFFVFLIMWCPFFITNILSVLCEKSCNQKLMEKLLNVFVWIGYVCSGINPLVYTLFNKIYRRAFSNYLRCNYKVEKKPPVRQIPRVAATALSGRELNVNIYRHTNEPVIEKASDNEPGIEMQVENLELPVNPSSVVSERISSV

[5] = system: MES-induced tonic seizures; test: Maximal electroshock seizure (MES) test in mice with isobolographic/CalcuSyn DDI analysis; format: in vivo, mouse; settings: for Dose Reduction Index (DRI): in CBD/FEN combination vs drug alone; for doses with statistically significant (p<0.05) anticonvulsant effect vs vehicle: Experiment A, single drug; for doses with statistically significant (p<0.05) anticonvulsant effect vs vehicle / effect on incidence of MES vs vehicle, drug alone: i.p.; for doses with statistically significant (p<0.05) anticonvulsant effect vs vehicle / ED50: mouse MES; for effect on incidence of MES vs vehicle, drug alone: Experiment B, low doses alone; for ED50: median-effect curves, drug alone, read-out: potency (Dm or ED50)
Experimental: The study was performed in two phases. […] Secondly, (Experiment B), drug-drug interactions (DDI) and anticonvulsant activities for CBD/FEN in combination were determined.
Experiment A was performed using 160 male, C57Bl6 mice, weighing between 20.1-30.1 g, and Experiment B was performed using 126 male, C57Bl6 mice, weighing between 19.2-26.1 g, purchased from a licensed breeder (Charles River, UK).
The following drugs were used in this study: Purified botanical CBD provided by GW Research Ltd., fenfluramine hydrochloride (FEN) purchased from Sigma Merck. The control vehicle used was 1:1:18 (5% ethanol, 5% Kolliphor EL, 90% saline). CBD and FEN were dissolved in the same control vehicle for comparison.
Animals were dosed (10 ml/kg) i.p. at 60 min for CBD and 30 min for FENS pre-treatment times, prior to MES and before plasma and brain sampling immediately post-MES test.
Here, doses were selected based on known ED50 and NOAELs for all the drugs and were: CBD-BOT [10, 30, 50, 70 and 100 mg/kg] and FEN [1, 2, 3, 5 and 10 mg/kg]. The number of animals in each of these groups were 10 (n=10), and 160 in total.
For Experiment B, in addition to the vehicle group, three dose groups were used for each of the treatments. Here, doses were selected based on analysis of the data obtained from Experiment A according to methods described for determination of isobolographic interactions. Doses as CBD/FEN combination were [20.9/2.5, 13.6/3.9 and 28.3/1.2 mg/kg]. The number of animals in each of these groups were 10 (n=10), and with individual CBD, FEN and VPA doses n=190 in total.
Electroconvulsions were produced by application of a fixed current intensity of 30 mA (0.2 sec duration) delivered via corneal electrodes. […] Mice were individually assessed for production of seizure determined by presence or absence of tonic hindlimb extension following current application.
Data were collected by an observer unaware of the treatment received by each animal.
The protective activities of CBD and FEN administered alone were evaluated and expressed as effective doses (ED50; mg/kg based on dose administered) and effective exposures (EE50; μM based on bioanalysis of brain samples) where EX50 is defined as the dose or brain exposure required to protect 50% of mice from MES-induced tonic seizures. CBD/FEN combinations were evaluated at 3 fixed ratios (1:3, 1:1 and 3:1) based on an EE50 derived from an assumption of linearly additive effects of EEs of the two drugs in combination.
For the three fixed-ratio CBD/FEN combinations (1:3, 1:1 and 3:1), calculations were based on Loewe's equation of additivity as follows; x/EE50(CBD)+y/EE50(FEN)=1; where x=the exposure of CBD and y=the exposure at which […], when co-administered with FEN, should theoretically exert the desired/additive 50% effect. Subsequently, CBD and FEN doses corresponding to 50% of respective EE50 were used for the CBD/FEN 1:1 ratio. Similarly, dose proportions were calculated for the CBD/FEN 1:3 and 3:1 ratios based on theoretical additive EE50.
The percentage protection of animals against MES-induced seizure were plotted against doses of AED alone (CBD or FEN) from Experiment A as log-probit linear regression analysis to derive ED50 and EE50.
Loewe's equation of additivity was used to determine fractions of EE50 in the three ratios 1:3, 1:1 and 3:1 for each of the combinations CBD/FEN. Graphs were plotted in Prism, for CBD and FEN to determine relationships versus these exposures to determine actual doses for the combination study (Experiment B).
DDI using these three-fixed dose-ratios of CBD/FEN was assessed using CalcuSyn v2.11 (Biosoft).

[6] = system: seizure frequency in patients with Dravet syndrome; settings: low dose between 0.25 and 1.0 mg/kg/day; cited from earlier work

T1 sequence (P41595 whole entry): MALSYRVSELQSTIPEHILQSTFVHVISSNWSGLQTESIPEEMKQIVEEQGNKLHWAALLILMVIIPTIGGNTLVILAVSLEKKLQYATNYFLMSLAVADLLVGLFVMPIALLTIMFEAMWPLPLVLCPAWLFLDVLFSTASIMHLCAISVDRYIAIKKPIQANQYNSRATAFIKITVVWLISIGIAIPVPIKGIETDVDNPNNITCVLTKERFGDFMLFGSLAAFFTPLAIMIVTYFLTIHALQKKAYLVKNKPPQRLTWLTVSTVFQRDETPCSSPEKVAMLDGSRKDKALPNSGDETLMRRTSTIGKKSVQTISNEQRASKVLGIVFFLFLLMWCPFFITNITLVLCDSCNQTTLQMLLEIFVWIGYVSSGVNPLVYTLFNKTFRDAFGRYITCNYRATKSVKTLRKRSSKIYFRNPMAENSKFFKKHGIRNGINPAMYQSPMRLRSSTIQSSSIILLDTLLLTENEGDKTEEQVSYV

For `C=C(C)[C@@H]1CCC(CO)=C[C@H]1c1c(O)cc(CCCCC)cc1O` [7-OH-CBD, 7-hydroxy cannabidiol], the Kb [1] was 690 nM, the “7-OH-CBD concentration relative to that achieved by CBD” value ([2]; clinical use of CBD) was ~50% and the “agonist activity at 5-HT2B receptors” value [3] was “Neither CBD nor 7-OH-CBD possess agonist activity”.
With `C=C(C)[C@@H]1CCC(C)=C[C@H]1c1c(O)cc(CCCCC)cc1O` [CBD, cannabidiol] the Kb [1] was 3700 nM, the plasma concentration reached ([2]; human clinical trials in epilepsy, plasma) was “up to 330 ng/mL” and the molar plasma concentration ([2]; human clinical use of CBD, plasma) was ~1 µM. The “interaction with the 5-HT2C receptor” value [4] was “does not act upon the 5-HT2C receptors”, the “Drug alone dose for the given effect” value ([5]; Effect 40%) was 28.46 mg/kg and the “Dose Reduction Index (DRI)” value ([5]; Effect 40%) was 1.006 fold. The “Drug alone dose for the given effect” value ([5]; Effect 80%) was 56.55 mg/kg, the “Dose Reduction Index (DRI)” value ([5]; Effect 80%) was 2.704 fold and the “Drug alone dose for the given effect” value ([5]; Effect 90%) was 77.15 mg/kg. The “Dose Reduction Index (DRI)” value ([5]; Effect 90%) was 5.690 fold, the “doses with statistically significant (p<0.05) anticonvulsant effect vs vehicle” value [5] was 50 to 100 mg/kg and the “effect on incidence of MES vs vehicle, drug alone” value [5] was “no significant effect”. For the same compound, the ED50 [5] was 33.2 mg/kg and the “agonist activity at 5-HT2B receptors” value [3] was “Neither CBD nor 7-OH-CBD possess agonist activity”.
In the case of `CCNC(C)Cc1cccc(C(F)(F)F)c1` (stereo not drawn) [FEN, fenfluramine hydrochloride, reference compound], the “effect on seizure frequency” value [6] is given as “reduce seizure frequency”, the “Drug alone dose for the given effect” value ([5]; Effect 40%) is given as 4.19 mg/kg and the “Dose Reduction Index (DRI)” value ([5]; Effect 40%) is given as 3.639 fold. For the same compound, the “Drug alone dose for the given effect” value ([5]; Effect 80%) was 8.26 mg/kg, the “Dose Reduction Index (DRI)” value ([5]; Effect 80%) was 3.306 fold and the “Drug alone dose for the given effect” value ([5]; Effect 90%) was 11.24 mg/kg. The “Dose Reduction Index (DRI)” value ([5]; Effect 90%) was 2.921 fold, the “doses with statistically significant (p<0.05) anticonvulsant effect vs vehicle” value [5] was 10 mg/kg and the “effect on incidence of MES vs vehicle, drug alone” value [5] was “no significant effect”. For the same compound, the ED50 [5] was 4.9 mg/kg.
